The structures appear in SMILES notation.

Type in all cases: cell-based
Assay [1] concerns LN229 GFP-LC3 cells. As to the kind of experiment: Fluorescence microscopy of GFP-LC3 puncta (autophagosome accumulation). To be noted: increasing doses; 48 hours of treatment; FIG. 2. The protocol:
Punctate flouresence indicates the accumulation of LC3-positive autophagosomes.
Fluorescence Microscopy: Cells were grown in sterile glass coverslips and treated in full medium as indicated above. After 48 hours of treatment cells were fixed with 4% paraformaldehyde and imaged using a Nikon upright fluorescent microscope. Images were captured at 100× and representative images were reported.

The subject of assay [2] is LN229 cells expressing GFP-LC3. The assay is described as follows: Cell counting of LN229 GFP-LC3 cells (Coulter Z2 particle analyzer, confirmed by trypan blue exclusion). To be noted: 5 nM rapamycin and/or 5 μM chloroquine, FIG. 1. The protocol: Cell lines, transfection, and cell counting: LN229 cells were grown in DMEM supplemented with 10% heat-inactivated fetal bovine serum (Gemini Biosciences, Woodland, Calif.), 10 units/ml penicillin/streptomycin, and 2 mM L-glutamine (Invitrogen Corporation). LN229 cells were transfected with lipofectamine 2000 (Invitrogen) according to manufacturer protocol. Stable transfectants were selected with neomycin (Gibco), and high fluorescence clones of LN229 GFP-LC3 were selected by limiting dilution. For all in vitro experiments media+supplements and drugs treatments were changed daily. Cell number was assessed by using a Coulter Z2 particle analyzer and confirmed by trypan blue exclusion.

The subject of assay [3] is LN229 GFP-LC3 cells. The assay is described as follows: Electron microscopy of autophagic vesicles. To be noted: FIG. 3. From the text:
Cells were postfixed with 2% osmium tetroxide followed by an increasing gradient dehydration step using ethanol and propylene oxide.

In the case of `CCN(CC)CCCC(C)Nc1ccnc2cc(Cl)ccc12` (centres unmarked) [chloroquine], in the assay on LN229 GFP-LC3 cells [1], the “accumulation of LC3-positive autophagosomes (punctate fluorescence)” value is “accumulated LC3-positive autophagosomes”. Besides, the cell number result in assay [2] is on record as “decrease in cell number”.
In the case of `CO[C@H]1C[C@@H]2CC[C@@H](C)[C@@](O)(O2)C(=O)C(=O)N2CCCC[C@H]2C(=O)O[C@H]([C@H](C)C[C@@H]2CC[C@@H](O)[C@H](OC)C2)CC(=O)[C@H](C)/C=C(\C)[C@@H](O)[C@@H](OC)C(=O)[C@H](C)C[C@H](C)/C=C/C=C/C=C/1C` [rapamycin], the “accumulation of LC3-positive autophagosomes (punctate fluorescence)” value with LN229 GFP-LC3 cells [1] is listed as “accumulated LC3-positive autophagosomes”. Besides, in assay [2], the cell number entry is recorded as “decrease in cell number”. Besides, in the assay with LN229 GFP-LC3 cells [3], the “autophagosomes in electron micrographs” value was “autophagosomes are observed”.
